# Experimental data: patent US20060223135A1, “High throughput reactive oxygen species-based cytochrome P450 inhibition assay” (The University of North Carolina at Chapel Hill, priority 2005, published 2006)
# Tests used:
# CYP3A4 [1] = biological target: T1, CYP3A4 (Homo sapiens, UniProt P08684); test: ROS-based fluorescence assay (DCFH-DA oxidation) of inhibition of CYP3A4-mediated testosterone oxidation; conditions: ROS-based IC50, recombinant CYP3A4 microsomes, testosterone substrate 40 μM
# Experimental: (§1) 1′-hydroxymidazolam and microsomes (SUPERSOMES™) prepared from baculovirus-infected insect cells containing recombinant heterologously expressed human CYP plus NADPH CYP reductase were purchased from GenTest Corp. (Woburn, Mass., United States of America). 6β-hydroxytestosterone and 11α-hydroxyprogesterone were obtained from Steraloids Inc. (Wilton, N.H., United States of America).
# Stock solutions of DCFH-DA (2.5 mM) and NADPH (20 mM) were prepared prior to each experiment in methanol and buffer, respectively. Substrates and inhibitors were prepared in 100% methanol and stored at −20° C. […] Unless otherwise indicated, testosterone were added to the reactions at a final concentration of 40 μM. An equal volume of methanol was added to samples containing no substrate and served as controls. Reactions were performed at 37° C. in 96-well black bottom plates. Inhibitors were added at varying concentrations from stock solutions prepared in either water or methanol. Final methanol concentrations were kept constant among samples (1%, v/v) to eliminate variability in the rate of fluorescence production due to the effect of methanol on CYP activity. […] The concentration of DCF in the reactions was determined using a standard curve constructed with authentic DCF. […]
# CYP3A4 [2] = biological target: T1, CYP3A4; test: Conventional LC-UV assay quantifying 6β-hydroxytestosterone formation by CYP3A4; conditions: LC-based IC50, recombinant CYP3A4 microsomes, testosterone substrate, LC-UV quantification of 6β-hydroxytestosterone
# Experimental: as §1
# Inhibition of CYP3A4-mediated oxidation of testosterone was measured by 6β-hydroxytestosterone formation. The kinetics of 6β-hydroxytestosterone formation by CYP3A4 was determined and compared to rate of fluorescence production. Reactions consisted of varying concentrations of testosterone, 50 pmol CYP3A4 per ml, and buffer to a final volume of one milliliter. Reactions were performed at 37° C. and were started upon addition of 1 mM NADPH. […] Samples were placed immediately on ice and the precipitated protein was removed by centrifugation for four minutes at 13,000 rpm. The supernatant was transferred to HPLC vials for analysis.
# HPLC analysis was performed using an Agilent 1100 Series HPLC system (Agilent Technologies, Palo Alto, Calif., United States of America) equipped with an online UV-detector. […]
# T1 sequence (P08684 2-503 limits assumed): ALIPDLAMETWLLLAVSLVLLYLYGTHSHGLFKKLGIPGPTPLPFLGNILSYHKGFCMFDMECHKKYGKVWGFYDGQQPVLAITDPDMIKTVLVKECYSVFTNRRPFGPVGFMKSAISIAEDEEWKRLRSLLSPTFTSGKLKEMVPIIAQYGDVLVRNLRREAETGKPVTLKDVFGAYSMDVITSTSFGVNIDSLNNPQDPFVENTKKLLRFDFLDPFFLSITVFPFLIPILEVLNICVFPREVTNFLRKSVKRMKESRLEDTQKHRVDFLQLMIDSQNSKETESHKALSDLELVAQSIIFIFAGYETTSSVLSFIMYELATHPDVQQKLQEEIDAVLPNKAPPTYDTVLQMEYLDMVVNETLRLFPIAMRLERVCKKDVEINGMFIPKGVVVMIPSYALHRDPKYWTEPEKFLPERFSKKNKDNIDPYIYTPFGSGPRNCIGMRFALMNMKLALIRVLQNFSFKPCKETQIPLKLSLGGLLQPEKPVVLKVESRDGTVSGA
IC50 (CYP3A4 [1]) [µM],IC50 (CYP3A4 [2]) [µM],Structure (SMILES)
27.6,22.6,CC(=O)[C@H]1CC[C@H]2[C@@H]3CCC4=CC(=O)CC[C@]4(C)[C@H]3CC[C@]12C [Progesterone]
27.6,1.7,CC[C@H]1OC(=O)[C@H](C)[C@@H](O[C@H]2C[C@@](C)(OC)[C@@H](O)[C@H](C)O2)[C@H](C)[C@@H](O[C@@H]2O[C@H](C)C[C@H](N(C)C)[C@H]2O)[C@](C)(O)C[C@@H](C)C(=O)[C@H](C)[C@@H](O)[C@]1(C)O [Erythromycin]
